We go through 1 compound from ChEMBL document CHEMBL5543121, “Drug Repurposing of ACT001 to Discover Novel Promising Sulfide Prodrugs with Improved Safety and Potent Activity for Neutrophil-Mediated Antifungal Immunotherapy” (J Med Chem, 2024).

The Tmax is the time from dosing to the highest level. A word on the AUC(0-inf): it is total exposure, with the tail of the curve extrapolated. Low values mean less exposure, high ones more exposure.

The source made the active and inactive calls. The rule behind the calls is not given here.

The nature of series [1]: Subacute toxicity in C57BL/6 mouse assessed as change in heart weight at 100 mg/kg, po administered daily for 14 days. The format is organism-based. Particulars: in vivo, 336 h, time 14 day.
The nature of series [2]: Acute toxicity in C57BL/6 mouse assessed as effect on creatinine level in serum at 500 mg/kg, po administered as single dose and measured every day for 14 days. The series is classed as organism-based. Particulars: in vivo, 336 h, time 14 day.
A short description of series [3]: Tmax in male Sprague-Dawley rat at 10 mg/kg, po by LC-MS/MS analysis. The format is ADME, organism-based. The conditions noted are these: in vivo.
Series [4] addresses Signal transducer and activator of transcription 3 (Mus musculus) (UniProt P42227). The experiment in a line: Inhibition of biotinylated ACT001 probe binding to STAT3 in mouse bone marrow neutrophils at 100 uM by pulldown based Western blot analysis. The series is classed as cell-based. The conditions noted are these: Neutrophil. (Immunoblotting shows a protein as a band on a membrane.)

Series [5] in a line: Acute toxicity in C57BL/6 mouse assessed as change in lung weight at 500 mg/kg, po administered as single dose and measured after 14 days. The series is classed as organism-based. The conditions noted are these: in vivo, 336 h, time 14 day.
Series [6] can be described thus: Subacute toxicity in C57BL/6 mouse assessed as histopathological changes in spleen at 100 mg/kg, po administered daily for 14 days. The series is classed as organism-based. The conditions noted are these: in vivo, 336 h, time 14 day.
The nature of series [7]: Subacute toxicity in C57BL/6 mouse assessed as histopathological changes in lung at 100 mg/kg, po administered daily for 14 days. The series is classed as organism-based. The conditions noted are these: in vivo, 336 h, time 14 day.
Series [8] has as its system Candida albicans. As to the kind of experiment: Induction of neutrophil-mediated antifungal immunity against Candida albicans SC5314 infected in mouse assessed as reduction in accumulation of Ly6G positive neutrophils in bone marrow at 50 to 100 mg/kg, po administered once a day for 3 days. Particulars: dose 50-100 mg/kg, time 3.0 day. The format is functional, organism-based.

Series [9] deals with Candida albicans. The experiment in a line: Induction of neutrophil-mediated antifungal immunity against Candida albicans SC5314 infected in mouse assessed as inhibition of CXCL2 protein expression in bone marrow at 50 to 100 mg/kg, po administered once a day for 3 days by ELISA. The series is classed as functional, organism-based. The conditions noted are these: dose 50-100 mg/kg, time 3.0 day. (ELISA stands for enzyme-linked immunosorbent assay.)

The nature of series [10]: AUC (0 to infinity) in male Sprague-Dawley rat at 2 mg/kg, iv by LC-MS/MS analysis. The conditions noted are these: in vivo. The format is ADME, organism-based.
Series [11] can be described thus: Acute toxicity in C57BL/6 mouse assessed as histopathological changes in heart at 500 mg/kg, po administered as single dose and measured after 14 days. The format is organism-based. Particulars: in vivo, 336 h, time 14 day.

Sequence of Signal transducer and activator of transcription 3 (Mus musculus) (P42227 whole entry): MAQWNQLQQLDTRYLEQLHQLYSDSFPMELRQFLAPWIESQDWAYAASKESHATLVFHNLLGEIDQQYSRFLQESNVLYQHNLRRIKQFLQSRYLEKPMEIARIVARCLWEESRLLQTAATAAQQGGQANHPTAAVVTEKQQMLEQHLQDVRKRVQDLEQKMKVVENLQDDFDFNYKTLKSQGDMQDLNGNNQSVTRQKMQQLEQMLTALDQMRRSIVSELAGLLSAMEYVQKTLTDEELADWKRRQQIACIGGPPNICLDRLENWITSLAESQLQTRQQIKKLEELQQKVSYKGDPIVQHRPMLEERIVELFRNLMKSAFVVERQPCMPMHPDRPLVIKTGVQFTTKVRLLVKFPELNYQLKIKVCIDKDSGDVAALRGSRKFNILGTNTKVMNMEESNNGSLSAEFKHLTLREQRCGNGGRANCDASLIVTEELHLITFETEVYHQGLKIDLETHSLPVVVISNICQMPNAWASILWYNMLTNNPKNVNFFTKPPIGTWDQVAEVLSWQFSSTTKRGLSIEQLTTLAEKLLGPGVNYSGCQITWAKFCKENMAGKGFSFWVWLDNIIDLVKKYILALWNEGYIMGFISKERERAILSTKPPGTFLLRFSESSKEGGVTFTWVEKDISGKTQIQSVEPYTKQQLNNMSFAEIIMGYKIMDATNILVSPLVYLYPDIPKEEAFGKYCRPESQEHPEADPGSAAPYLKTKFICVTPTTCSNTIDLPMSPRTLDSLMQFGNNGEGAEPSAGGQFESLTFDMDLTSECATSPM

Regarding `C[C@@]1(O)CC[C@]23O[C@@]2(C)CC[C@@H]2[C@H](OC(=O)[C@H]2CS(=O)(=O)c2c(Cl)cccc2Cl)[C@@H]13`, the Activity entry in [1], in series [2], in series [5], in [6], in series [7] and in series [11] was “Non-Toxic” in each case. For the same compound, the Tmax in [3] worked out at 19.8 min. In [4], the inhibition result is “Active”. Besides, the outcome with Candida albicans [8] and in the series on Candida albicans [9] was Active. The AUC(0-inf) in series [10] is 75.4 ng·h/mL.
